From US20080214555A1 (priority 2007, published 2008)
Where two headings read alike, the source gives them in different places.

How the values were obtained:
[1] = background statement; cited from earlier work
[2] = test system: patients with non-ST elevation acute coronary syndrome; experiment: MERLIN-TIMI 36: arrhythmias on 7 day continuous ECG (Holter) recording; format: in vivo, human
Description: Continuous ECG (Holter) recording was performed for the first 7 days after randomization. Because of the known prolongation of the QT interval with ranolazine, analyses of a prespecified set of arrhythmias were a major objective of the trial. All arrhythmias were evaluated in the TIMI ECG Core Laboratory by cardiologists blinded to treatment and outcomes.
Continuous ECG (cECG or Holter) recording was performed for the first 7 days after randomization. Prespecified arrhythmia analyses were evaluated by a core laboratory blinded to treatment and outcomes.

[3] = test system: patients with non-ST elevation acute coronary syndrome; experiment: MERLIN-TIMI 36: Seattle Angina Questionnaire scores at 4 months; format: in vivo, human; conditions: ITT
From the text: The MERLIN-TIMI 36 secondary efficacy endpoint (ITT) Seattle Angina Questionnaire scores at 4 months for anginal frequency scale are shown in Table 16 below, and scores for physical limitation scale are shown in Table 17 below.

[4] = test system: patients with non-ST elevation acute coronary syndrome
[5] = Example 8 table, first 7 days, n = 3162
[6] = Table 24, all patients dosed, n = 3268
[7] = incidence of ventricular tachyarrhythmias table
[8] = 30 days, all patients dosed, n = 3268
[9] = 60 days, all patients dosed, n = 3268
[10] = 360 days, all patients dosed, n = 3268
[11] = 540 days, all patients dosed, n = 3268
[12] = endpoint death or CV hospitalization, all patients dosed, n = 3268
[13] = ranolazine vs placebo, all patients dosed

For `COc1ccccc1OCC(O)CN1CCN(CC(=O)Nc2c(C)cccc2C)CC1` (racemic) [Ranolazine, (±)-N-(2,6-dimethylphenyl)-4-[2-hydroxy-3-(2-methoxyphenoxy)-propyl]-1-piperazineacetamide], the “Prolonging the QTc interval” value [1] is listed as 2 to 5 ms, the “Episode of ventricular arrhythmia lasting >=8 beats, %” value ([2]; Example 8) is listed as 5.5% and the “Episode of ventricular arrhythmia lasting >=8 beats, number of patients” value ([2]; Example 8) is listed as 175. For the same molecule, the “New-onset atrial fibrillation, %” value ([2]; Example 8) was 1.7%, the “New-onset atrial fibrillation, number of patients” value ([2]; Example 8) was 55 and the “Pauses >=3 seconds, %” value ([2]; Example 8) was 3.1%. The “Pauses >=3 seconds, number of patients” value ([2]; Example 8) was 97, the “Supraventricular tachycardia, %” value ([2]; Example 8) was 43.2% and the “Supraventricular tachycardia, number of patients” value ([2]; Example 8) was 1413. For the same molecule, the “Any ventricular tachycardia >= 3 beats, %” value [2, 5] was “(29.0) %”, the “Any ventricular tachycardia >= 3 beats, number” value [2, 5] was 948 and the “Brady, Complete heart block, or Pause >= 2.5 sec, %” value [2, 5] was “(38.5) %”. The “Brady, Complete heart block, or Pause >= 2.5 sec, number” value [2, 5] was 1257, the “Bradycardia < 45 bpm for at least 4 beats, %” value [2, 5] was “(37.8) %” and the “Bradycardia < 45 bpm for at least 4 beats, number” value [2, 5] was 1236. For the same molecule, the “Clinically Significant Arrhythmia on Holter, %” value [2, 5] was “(71.3) %”, the “Clinically Significant Arrhythmia on Holter, number” value [2, 5] was 2330 and the “Pause >3 secs, %” value [2, 5] was “(3.1) %”. For the same molecule, the “Pause >3 secs, number” value [2, 5] was 97, the “Pause >3 secs: AV node block, %” value [2, 5] was “(1.0) %” and the “Pause >3 secs: AV node block, number” value [2, 5] was 31. The “Pause >3 secs: Other, %” value [2, 5] was “(0.1) %”, the “Pause >3 secs: Other, number” value [2, 5] was 2 and the “Pause >3 secs: Sinoatrial node block, %” value [2, 5] was “(2.0) %”. The “Pause >3 secs: Sinoatrial node block, number” value [2, 5] was 64, the “Polymorphic VT >= 8 beats, %” value [2, 5] was “(1.2) %” and the “Polymorphic VT >= 8 beats, number” value [2, 5] was 38. For the same molecule, the “Sustained VT (>=30 secs), %” value [2, 5] was “(0.44) %”, the “Sustained VT (>=30 secs), number” value [2, 5] was 14 and the “Sustained VT (>=30 secs): Monomorphic, %” value [2, 5] was “(0.12) %”. The “Sustained VT (>=30 secs): Monomorphic, number” value [2, 5] was 4, the “Sustained VT (>=30 secs): Polymorphic, %” value [2, 5] was “(0.32) %” and the “Sustained VT (>=30 secs): Polymorphic, number” value [2, 5] was 10. The “Triplets, %” value [2, 5] was “(46.9) %”, the “Triplets, number” value [2, 5] was 1532 and the “VT >= 4 beats, %” value [2, 5] was “(23.6) %”. The “VT >= 4 beats, number” value [2, 5] was 772, the “VT >= 8 beats (<30 secs), %” value [2, 5] was “(5.5) %” and the “VT >= 8 beats (<30 secs), number” value [2, 5] was 175. The “Episode of ventricular tachycardia lasting >8 beats, %” value ([2]; Example 9) was 5.3%, the “Episode of ventricular tachycardia lasting >8 beats, number of patients” value ([2]; Example 9) was 166 and the “New-onset atrial fibrillation, %” value ([2]; Example 9) was 1.7%. For the same molecule, the “New-onset atrial fibrillation, number of patients” value ([2]; Example 9) was 55, the “Pauses >3 seconds, %” value ([2]; Example 9) was 3.1% and the “Pauses >3 seconds, number of patients” value ([2]; Example 9) was 97. For the same molecule, the “Supraventricular tachycardia, %” value ([2]; Example 9) was 44.7%, the “Supraventricular tachycardia, number of patients” value ([2]; Example 9) was 1413 and the “Incidence of ventricular tachycardia” value ([2]; No. of beats ≧8) was 5.3%. For the same molecule, the “Incidence of ventricular tachycardia” value ([2]; No. of beats ≧10) was 3.5%, the “Incidence of ventricular tachycardia” value ([2]; No. of beats ≧15) was 1.3% and the “Incidence of ventricular tachycardia” value ([2]; No. of beats ≧20) was 0.9%. For the same molecule, the “Any Clinically Significant Arrhythmia during 7 day Holter, %” value [2, 6] was “(71.3%)”, the “Any Clinically Significant Arrhythmia during 7 day Holter, number” value [2, 6] was 2330 and the “Bradycardic episode during 7 day Holter, %” value [2, 6] was “(38.5%)”. The “Bradycardic episode during 7 day Holter, number” value [2, 6] was 1257, the “New onset atrial fibrillation during 7 day Holter, %” value [2, 6] was “(1.7%)” and the “New onset atrial fibrillation during 7 day Holter, number” value [2, 6] was 55. The “Supraventricular tachycardia (any SVT >= 120 bpm) during 7 day Holter, %” value [2, 6] was “(43.2%)”, the “Supraventricular tachycardia (any SVT >= 120 bpm) during 7 day Holter, number” value [2, 6] was 1413 and the “Ventricular tachycardia (any VT >= 100 bpm >= 3 beats) during 7 day Holter, %” value [2, 6] was “(29.0%)”. The “Ventricular tachycardia (any VT >= 100 bpm >= 3 beats) during 7 day Holter, number” value [2, 6] was 948, the “Polymorphic VT >= 8 beats on cECG, %” value [2, 7] was “(1.2) %” and the “Sustained VT (>=30 sec) on cECG, %” value [2, 7] was “(0.44) %”. The “VT ≧ 3 beats (≧100 b/m) on cECG, %” value [2, 7] was “(52.1) %”, the “VT ≧ 4 beats (≧100 b/m) on cECG, %” value [2, 7] was “(20.9) %” and the “VT ≧ 8 beats (<30 sec) on cECG, %” value [2, 7] was “(5.3) %”. The “Polymorphic VT >= 8 beats on cECG, Δ n” value ([2]; placebo vs ranolazine) was 10, the “Sustained VT (>=30 sec) on cECG, Δ n” value ([2]; placebo vs ranolazine) was 0 and the “VT ≧ 3 beats (≧100 b/m) on cECG, Δ n” value ([2]; placebo vs ranolazine) was 347. The “VT ≧ 4 beats (≧100 b/m) on cECG, Δ n” value ([2]; placebo vs ranolazine) was 279, the “VT ≧ 8 beats (<30 sec) on cECG, Δ n” value ([2]; placebo vs ranolazine) was 99 and the “Polymorphic VT >= 8 beats on cECG, Δ (%)” value ([2]; ranolazine vs placebo) was “(−21) %”. The “VT ≧ 3 beats (≧100 b/m) on cECG, Δ (%)” value ([2]; ranolazine vs placebo) was “(−17) %”, the “VT ≧ 4 beats (≧100 b/m) on cECG, Δ (%)” value ([2]; ranolazine vs placebo) was “(−30) %” and the “VT ≧ 8 beats (<30 sec) on cECG, Δ (%)” value ([2]; ranolazine vs placebo) was “(−37) %”. For the same molecule, the “Incidence of ventricular tachycardia of >8 beats” value (shortened to “Incidence … of >8 beats”) ([2]; subgroup baseline QTc >450 msec) was 5.6%, the “Incidence … of >8 beats” value ([2]; subgroup baseline QTc ≦450 msec) was 5.2% and the “Incidence … of >8 beats” value ([2]; subgroup ejection fraction <40%) was 8.8%. For the same molecule, the “Incidence … of >8 beats” value ([2]; subgroup ejection fraction ≧40%) was 5.3%, the “Seattle Angina Questionnaire physical limitation scale score, 25th percentile-75th percentile” value ([3]; N 2339) was 55.6-94.4 and the “Seattle Angina Questionnaire physical limitation scale score, Mean (SEM)” value ([3]; N 2339) was 72.8 (0.5). The “Seattle Angina Questionnaire physical limitation scale score, Median” value ([3]; N 2339) was 77.8, the “Seattle Angina Questionnaire physical limitation scale score, Min-Max” value ([3]; N 2339) was 0-100 and the “Seattle Angina Questionnaire anginal frequency scale score, 25th percentile-75th percentile” value ([3]; N 2558) was 80-100. The “Seattle Angina Questionnaire anginal frequency scale score, Mean (SEM)” value ([3]; N 2558) was 84.3 (0.4), the “Seattle Angina Questionnaire anginal frequency scale score, Median” value ([3]; N 2558) was 100 and the “Seattle Angina Questionnaire anginal frequency scale score, Min-Max” value ([3]; N 2558) was 0-100. The “Incidence (Kaplan-Meier estimate) of death from any cause” value (“Incidence … from any cause” for short) [4, 8] was 1.8%, the “Incidence (Kaplan-Meier estimate) of death or CV hospitalization” value (“Incidence … of death or CV hospitalization” for short) [4, 8] was 9.2% and the “Incidence … from any cause” value [4, 9] was 2.2%. The “Incidence … of death or CV hospitalization” value [4, 9] was 15.0%, the “Incidence … from any cause” value ([4]; 180 days, all patients dosed, n = 3268) was 3.4% and the “Incidence … from any cause” value [4, 10] was 5.3%. For the same molecule, the “Incidence … of death or CV hospitalization” value [4, 10] was 32.8%, the “Incidence … from any cause” value [4, 11] was 7.0% and the “Incidence … of death or CV hospitalization” value [4, 11] was 37.6%. The Symptomatic documented arrhythmias ([4]; Example 7) was 3.0%, the “Clinically reported sudden cardiac death, number” value ([4]; Example 8) was 56 and the “Pts with events: death from any cause (safety endpoint)” value ([4]; all patients dosed, n = 3268) was 172. For the same molecule, the “Pts with events: first occurrence of death or CV hospitalization (safety endpoint)” value ([4]; all patients dosed, n = 3268) was 1037, the “Symptomatic documented arrhythmias: Bradyarrhythmias, %” value ([4]; all patients dosed, n = 3268) was 1.0% and the “Symptomatic documented arrhythmias: Bradyarrhythmias, number” value ([4]; all patients dosed, n = 3268) was 34. The “Symptomatic documented arrhythmias: Cardiac arrest NOS, %” value ([4]; all patients dosed, n = 3268) was 0.3%, the “Symptomatic documented arrhythmias: Cardiac arrest NOS, number” value ([4]; all patients dosed, n = 3268) was 10 and the “Symptomatic documented arrhythmias: Pts. with Arrhythmias - Overall, %” value ([4]; all patients dosed, n = 3268) was 3.0%. For the same molecule, the “Symptomatic documented arrhythmias: Pts. with Arrhythmias - Overall, number” value ([4]; all patients dosed, n = 3268) was 99, the “Symptomatic documented arrhythmias: Supraventricular arrhythmias, %” value ([4]; all patients dosed, n = 3268) was 1.2% and the “Symptomatic documented arrhythmias: Supraventricular arrhythmias, number” value ([4]; all patients dosed, n = 3268) was 38. For the same molecule, the “Symptomatic documented arrhythmias: Ventricular arrhythmias, %” value ([4]; all patients dosed, n = 3268) was 0.7%, the “Symptomatic documented arrhythmias: Ventricular arrhythmias, number” value ([4]; all patients dosed, n = 3268) was 22 and the “Endpoint-defining events: CV hospitalization, % of pts with events” value [4, 12] was 89.3%. The “Endpoint-defining events: CV hospitalization, number” value [4, 12] was 926, the “Endpoint-defining events: Death, % of pts with events” value [4, 12] was 10.7% and the “Endpoint-defining events: Death, number” value [4, 12] was 111. The “HR, total mortality” value ([4]; ranolazine vs placebo, 95% CI 0.80-1.22) was 0.99, the “Relative risk (SE), death from any cause” value [4, 13] was 0.988 (0.11) and the “Relative risk (SE), death or CV hospitalization” value [4, 13] was 0.981 (0.04). It also gave a Symptomatic documented arrhythmias ([4]; women) of 2.6%.
